These are literature values, as cited in patent publication US20200309767A1, “HIGH-THROUGHPUT IMAGING-BASED METHODS FOR PREDICTING CELL-TYPE-SPECIFIC TOXICITY OF XENOBIOTICS WITH DIVERSE CHEMICAL STRUCTURES” (priority 2015, published 2020).

SMILES strings stand for the structures. Counter-ions that a name gives are not always drawn. Like-named read-outs stand apart in the source and are kept apart here.

For one data set, the system named is lung. The conditions noted are these: cited from earlier work.
Data set [1] has as its system human proximal tubular cells (PTCs). Particulars: cited from earlier work.
The subject of another data set is human kidney. The conditions noted are these: cited from earlier work.
The next data set relates to liver. Particulars: in vivo; cited from earlier work.
Where [2] appears, read: known in vivo group, Toxic / Non-toxic.
The mark [3] stands for this setting: known human kidney toxicity flag 1/0.

Take `CC(O)CCC(=O)c1ccoc1` (stereo not drawn) [4-Ipomeanol]: the Pulmonotoxic in the data set with lung (known toxicity flag 1/0) is reported as 0.

Turning to `C[C@H]1O[C@H](O[C@H]2[C@H](O)[C@@H](O)[C@@H](O[C@H]3[C@H](O)[C@@H](O)C(O)O[C@@H]3CO)O[C@@H]2CO)[C@H](O)[C@@H](O)[C@@H]1N[C@H]1C=C(CO)[C@@H](O)[C@H](O)[C@H]1O` (stereo partly drawn) [Acarbose], the “PTC Toxicity” value in data set [1] (human, in vivo) is “Non-toxic”. Moreover, the PTC-toxic in data set [1] (known toxicity flag 1/0) is 0.

On to `CC(=O)Nc1ccc(O)cc1` [Acetaminophen], for which, in data set [1] (human, in vivo), the “PTC Toxicity” value is given as “Non-toxic” and the PTC-toxic is given as 0. In addition, in the data set with human kidney (in vivo), the Nephrotoxic is given as 1. The Hepatotoxic with liver was 1.

With `CCCCc1oc2ccccc2c1C(=O)c1cc(I)c(OCCN(CC)CC)c(I)c1.Cl` [Amidoarone hydrochloride], in the data set with lung (known toxicity flag 1/0), the Pulmonotoxic is listed as 1.

Consider `COc1cccc2c1cc([N+](=O)[O-])c1c(C(=O)O)cc3c(c12)OCO3` [Aristolochic acid], for which the “PTC Toxicity” value in data set [1] (setting [2]) was “Toxic”. Further, in data set [1] (known toxicity flag 1/0), the PTC-toxic was 1. Further, in the data set with human kidney (setting [3]), the Nephrotoxic is recorded as 1. For the same compound, the Hepatotoxic in the data set with liver is recorded as 1.

Turning to `O=[As]O[As]=O` (stereo not drawn) [Arsenic(III) oxide], the “PTC Toxicity” value in data set [1] (setting [2]) is “Toxic”. Besides, in data set [1] (known toxicity flag 1/0), the PTC-toxic was 1. In the data set on human kidney (setting [3]), the Nephrotoxic is recorded as 1. For the same compound, the Hepatotoxic in the data set on liver was 1.

As for `CC(O)(CS(=O)(=O)c1ccc(F)cc1)C(=O)Nc1ccc(C#N)c(C(F)(F)F)c1` (stereo not drawn) [Bicalutamide], the Pulmonotoxic in the data set on lung (human, in vivo) is listed as 0.

With `[Bi+3].[Bi+3].[O-2].[O-2].[O-2]` [Bismuth(III) oxide], the “PTC Toxicity” value in data set [1] (setting [2]) is given as “Toxic”. For the same compound, the PTC-toxic in data set [1] (known toxicity flag 1/0) was 1. Besides, in the data set on human kidney (setting [3]), the Nephrotoxic is listed as 1. In the data set with liver, the Hepatotoxic is 1.

For `Cc1cc(C(C)(C)C)c(O)c(C(C)(C)C)c1` [Butylated hydroxytoluene], the Pulmonotoxic in the data set on lung (human, in vivo) was 0.

Turning to `NC(=O)N1c2ccccc2C=Cc2ccccc21` [Carbamazepine], in the data set on lung (human, in vivo), the Pulmonotoxic is 1.

As for `O=C(Cc1cccs1)N[C@@H]1C(=O)N2C(C(=O)[O-])=C(C[n+]3ccccc3)CS[C@H]12` [Cephaloridine], in data set [1] (human, in vivo), the “PTC Toxicity” value is “Toxic” and the PTC-toxic is on record as 1. The Nephrotoxic in the data set on human kidney (in vivo) is recorded as 1. Also, the Hepatotoxic in the data set with liver was 0.

Turning to `CC(=O)OCC1=C(C(=O)O)N2C(=O)[C@@H](NC(=O)CCC[C@@H](N)C(=O)O)[C@H]2SC1` [Cephalosporin C], in data set [1] (human, in vivo), the “PTC Toxicity” value was “Toxic” and the PTC-toxic was 1. In addition, the Nephrotoxic with human kidney (in vivo) is 1. For the same compound, the Hepatotoxic in the data set with liver is reported as 0.

As for `CC(=O)OCC1=C(C(=O)O)N2C(=O)[C@@H](NC(=O)Cc3cccs3)[C@H]2SC1` [Cephalothin], in data set [1] (human, in vivo), the “PTC Toxicity” value was “Toxic” and the PTC-toxic is reported as 1. Also, the Nephrotoxic in the data set on human kidney (in vivo) is reported as 1. For the same compound, the Hepatotoxic with liver is 0.

As to `CC1=C2C(=CO[C@H](C)[C@H]2C)C(O)=C(C(=O)O)C1=O` [Citrinin], in data set [1] (human, in vivo), the “PTC Toxicity” value is listed as “Toxic” and the PTC-toxic was 1. Also, the Nephrotoxic in the data set with human kidney (in vivo) was 1. Also, in the data set with liver, the Hepatotoxic is given as 0.

For `[Cl][Cu][Cl]` [Copper(II) chloride], the “PTC Toxicity” value in data set [1] (setting [2]) is on record as “Toxic”. In data set [1] (known toxicity flag 1/0), the PTC-toxic is on record as 1. For the same compound, the Nephrotoxic in the data set on human kidney (setting [3]) is reported as 1. In addition, the Hepatotoxic in the data set on liver is 1.

For the compound `O=P1(N(CCCl)CCCl)NCCCO1` (stereo not drawn) [Cyclophosphamide], the Pulmonotoxic with lung (known toxicity flag 1/0) is given as 1.

In the case of `OC[C@@H](O)[C@@H](O)[C@H](O)[C@@H](O)CO` [D-sorbitol], the Pulmonotoxic in the data set with lung (human, in vivo) was 0.

As to `C[C@@H]1C[C@H]2[C@@H]3CCC4=CC(=O)C=C[C@]4(C)[C@@]3(F)[C@@H](O)C[C@]2(C)[C@@]1(O)C(=O)CO` [Dexamethasone], in data set [1] (human, in vivo), the “PTC Toxicity” value is reported as “Non-toxic” and the PTC-toxic is 0. Further, the Nephrotoxic in the data set with human kidney (in vivo) is listed as 0. For the same compound, the Hepatotoxic with liver is listed as 0.

For `CC(=O)C(C)=O` [Diacetyl], in the data set with lung (human, in vivo), the Pulmonotoxic is given as 1.

`[Ge+4].[O-2].[O-2]` [Germanium(IV) oxide]: the “PTC Toxicity” value in data set [1] (setting [2]) is on record as “Toxic”. Also, the PTC-toxic in data set [1] (known toxicity flag 1/0) is 1. The Nephrotoxic in the data set on human kidney (setting [3]) is on record as 1. Moreover, the Hepatotoxic with liver is on record as 0.

Turning to `NCC(=O)O` [Glycine], in data set [1] (human, in vivo), the “PTC Toxicity” value was “Non-toxic” and the PTC-toxic is reported as 0. The Nephrotoxic with human kidney (in vivo) was 0. For the same compound, the Hepatotoxic in the data set with liver is 0.

On to `[Cl][Au]` [Gold(I) chloride], for which, in data set [1] (human, in vivo), the “PTC Toxicity” value is recorded as “Toxic” and the PTC-toxic is recorded as 1. The Nephrotoxic in the data set with human kidney (in vivo) is listed as 1. Besides, the Hepatotoxic in the data set on liver is on record as 1.

`C[C@]12CCC(=O)C=C1CC[C@@H]1[C@@H]2[C@@H](O)C[C@@]2(C)[C@H]1CC[C@]2(O)C(=O)CO` [Hydrocortisone]: in data set [1] (human, in vivo), the “PTC Toxicity” value is “Non-toxic” and the PTC-toxic was 0. Moreover, the Hepatotoxic in the data set with liver is 0.

On to `CC(C)Cc1ccc(C(C)C(=O)O)cc1` (stereo not drawn) [Ibuprofen], for which, in data set [1] (human, in vivo), the “PTC Toxicity” value is “Non-toxic” and the PTC-toxic is recorded as 0. In addition, the Hepatotoxic with liver was 1.

Turning to `CC(=O)N1CCN(c2ccc(OCC3COC(Cn4ccnc4)(c4ccc(Cl)cc4Cl)O3)cc2)CC1` (stereo not drawn) [Ketoconazole], the Pulmonotoxic in the data set on lung (human, in vivo) was 0.

Take `N[C@@H](Cc1ccc(O)c(O)c1)C(=O)O` [Levodopa]: in data set [1] (human, in vivo), the “PTC Toxicity” value is “Non-toxic”.

Consider `CCC[C@@H]1C[C@@H](C(=O)N[C@@H]([C@H]2O[C@H](SC)[C@H](O)[C@@H](O)[C@H]2O)[C@@H](C)O)N(C)C1` [Lincomycin hydrochloride], for which the Pulmonotoxic in the data set on lung (human, in vivo) is given as 0.

For the compound `Cl[C@H]1[C@H](Cl)[C@@H](Cl)[C@@H](Cl)[C@H](Cl)[C@H]1Cl` [Lindane], in data set [1] (human, in vivo), the “PTC Toxicity” value was “Non-toxic” and the PTC-toxic is 0. In the data set on human kidney (in vivo), the Nephrotoxic was 1. The Hepatotoxic in the data set with liver is listed as 0.

As to `COc1ccc2[nH]cc(CCNC(C)=O)c2c1` [Melatonin], in data set [1] (human, in vivo), the “PTC Toxicity” value is listed as “Non-toxic”.

Regarding `CN(C)C(=N)N=C(N)N` [Metformin hydrochloride], the Nephrotoxic in the data set on human kidney (in vivo) is 1. The Hepatotoxic in the data set on liver was 0.

As for `CN(Cc1cnc2nc(N)nc(N)c2n1)c1ccc(C(=O)N[C@@H](CCC(=O)O)C(=O)O)cc1` [Methotrexate], the Pulmonotoxic with lung (human, in vivo) is given as 1.

`C[C@H]1C(=O)O[C@@H]2CCN3CC=C(COC(=O)[C@](C)(O)[C@]1(C)O)[C@H]23` [Monocrotaline]: the Pulmonotoxic in the data set with lung (human, in vivo) is 0.

In the case of `CN(CCCC(=O)c1cccnc1)N=O` [NNK], the Pulmonotoxic in the data set on lung (known toxicity flag 1/0) is reported as 1.

`O=C1CC[C@@]2(O)[C@H]3Cc4ccc(O)c5c4[C@@]2(CCN3CC2CC2)[C@H]1O5` [Naltrexone hydrochloride]: the Pulmonotoxic with lung (human, in vivo) is given as 0.

`Cc1ccnc2c1NC(=O)c1cccnc1N2C1CC1` [Nevirapine]: the Pulmonotoxic with lung (human, in vivo) was 0.

`O=C1CN(/N=C/c2ccc([N+](=O)[O-])o2)C(=O)N1` [Nitrofurantoin]: in the data set with lung (human, in vivo), the Pulmonotoxic is reported as 1.

On to `CCOc1ccc(NC(C)=O)cc1` [Phenacetin], for which the “PTC Toxicity” value in data set [1] (human, in vivo) is “Non-toxic”.

Regarding `[K+].[K+].[O]=[Cr](=[O])([O-])[O][Cr](=[O])(=[O])[O-]` [Potassium dichromate], in data set [1] (human, in vivo), the “PTC Toxicity” value was “Toxic” and the PTC-toxic was 1. Moreover, in the data set with human kidney (in vivo), the Nephrotoxic is given as 1. Also, the Hepatotoxic in the data set with liver was 1.

`COc1ccc(C[C@H](N)C(=O)N[C@H]2[C@@H](O)[C@H](n3cnc4c(N(C)C)ncnc43)O[C@@H]2CO)cc1` [Puromycin]: in data set [1] (human, in vivo), the “PTC Toxicity” value is recorded as “Toxic” and the PTC-toxic is recorded as 1. Besides, the Nephrotoxic in the data set on human kidney (in vivo) is listed as 1. For the same compound, the Hepatotoxic with liver is 1.

As for `CO[C@H]1/C=C/O[C@@]2(C)Oc3c(C)c(O)c4c(O)c(c(/C=N/N5CCN(C)CC5)c(O)c4c3C2=O)NC(=O)/C(C)=C\C=C\[C@H](C)[C@H](O)[C@@H](C)[C@@H](O)[C@@H](C)[C@H](OC(C)=O)[C@@H]1C` [Rifampicin], in data set [1] (human, in vivo), the “PTC Toxicity” value is recorded as “Toxic” and the PTC-toxic is 1. Also, the Nephrotoxic in the data set on human kidney (in vivo) is 1. In addition, the Hepatotoxic in the data set on liver is on record as 1.

Consider `C=CC[C@@H]1/C=C(\C)C[C@H](C)C[C@H](OC)[C@H]2O[C@@](O)(C(=O)C(=O)N3CCCC[C@H]3C(=O)O[C@H](/C(C)=C/[C@@H]3CC[C@@H](O)[C@H](OC)C3)[C@H](C)[C@@H](O)CC1=O)[C@H](C)C[C@@H]2OC` [Tacrolimus], for which, in data set [1] (human, in vivo), the “PTC Toxicity” value was “Toxic” and the PTC-toxic is on record as 1. For the same compound, the Nephrotoxic in the data set on human kidney (in vivo) is given as 1. In addition, the Hepatotoxic in the data set with liver is recorded as 0.

As to `CN(C)[C@@H]1C(O)=C(C(N)=O)C(=O)[C@@]2(O)C(O)=C3C(=O)c4c(O)cccc4[C@@](C)(O)[C@H]3C[C@@H]12` [Tetracycline], in data set [1] (human, in vivo), the “PTC Toxicity” value was “Toxic” and the PTC-toxic is 1. In the data set with human kidney (in vivo), the Nephrotoxic is on record as 1. Further, the Hepatotoxic in the data set on liver is listed as 1.

Take `N[C@@H](Cc1cc(I)c(Oc2ccc(O)c(I)c2)c(I)c1)C(=O)O` [Triiodothyronine]: the “PTC Toxicity” value in data set [1] (human, in vivo) was “Non-toxic”.

`CC(C)[C@H](N)C(=O)OCCOCn1cnc2c(=O)[nH]c(N)nc21` [Valacyclovir]: in data set [1] (human, in vivo), the “PTC Toxicity” value is listed as “Non-toxic” and the PTC-toxic is listed as 0. Also, in the data set with human kidney (in vivo), the Nephrotoxic is reported as 1. The Hepatotoxic in the data set with liver is 1.

On to `CN[C@H](CC(C)C)C(=O)N[C@H]1C(=O)N[C@@H](CC(N)=O)C(=O)N[C@H]2C(=O)N[C@H]3C(=O)N[C@H](C(=O)N[C@H](C(=O)O)c4cc(O)cc(O)c4-c4cc3ccc4O)[C@H](O)c3ccc(c(Cl)c3)Oc3cc2cc(c3O[C@@H]2O[C@H](CO)[C@@H](O)[C@H](O)[C@H]2O[C@H]2C[C@](C)(N)[C@H](O)[C@H](C)O2)Oc2ccc(cc2Cl)[C@H]1O` [Vancomycin], for which, in data set [1] (human, in vivo), the “PTC Toxicity” value was “Non-toxic” and the PTC-toxic was 0. Besides, the Nephrotoxic in the data set on human kidney (in vivo) was 1. In addition, the Hepatotoxic in the data set with liver is recorded as 1.
